From patent US8765802B2, “Kinase inhibitors, compositions thereof, and methods of use therewith” (Provid Pharmaceuticals, Inc., priority 2007, dated 2014)

Tests used:
[1] = target: T1, Chk2 (Homo sapiens, UniProt O96017); assay: Chk2 inhibitor IMAP assay (high-throughput Chk2 screening assay); format: biochemical; conditions: IMAP fluorescence polarization assay, 10 μM ATP
T1 construct: made in house; host or cells: E. coli BL21 Star (Invitrogen)
Procedure: Compounds set forth in Table 1 were tested in the Chk2 inhibitor IMAP assay described herein in Example 6.84. […] The letters given for the Chk2 EC50 values in Table 1 represent the following ranges: A=<100 nM; B=100-300 nM; C=300-1000 nM; D=1-10 μM; and E>10 μM.
Compounds can be screened for Chk2 inhibitory activity using a high-throughput screening assay based in the immobilized metal ion affinity-based fluorescence polarization (IMAP) assay developed by Molecular Devices. This assay is based on the high affinity binding of phosphate by immobilized metal (MIII) coordination complexes on nanoparticles. A fluorescein-labeled peptide substrate is used as the substrate for the kinase activity of Chk2 in the assay. The IMAP binding reagent stops the kinase reaction. The binding of the binding reagent results in a change in the rate of molecular motion of the peptide and causes an increase in the fluorescence polarization value observed for the fluorescein label attached to the end of the peptide. Thus, inhibition of Chk2 would result in a decrease in fluorescence polarization compared to control.
A specific protocol for screening Compounds for Chk2 inhibitory activity follows.
A Compound is supplied at 1 mM in 0.5 μl DMSO on 384 well plates (such as Greiner or Corning). After thawing, 5 μl DMSO is added to the drug plate. The drug plate is then incubated for 10 minutes to solubilize the Compound. An additional 19.5 μl of reaction buffer (10× stock prepared using 100 mM Tris-HCl, 100 mM MgCl2, 1% BSA, pH 7.2, stored at 4° C.)+1 mM DDT is added to bring the Compound to 4× final concentration. A positive control is also prepared at 4× final concentration. The following control wells are used: less enzyme control (all reagents except enzyme; 5 μl/well), less Compound control (all reagents except Compound; 5 μl/well), positive control (all reagents plus staurosporine at a final concentration of 5 μM; 5 μl/well).
Reagents are then added in the following order to give the following final concentration: 2.5 μl ATP/Chk2tide (Molecular Devices) (10 μM/100 nM final concentration), 1.25 μl Compound (5 μM final concentration inf 5.5% DMSO), and 1.25 μl Chk2 (1:500, 2.4 μg/mL final concentration).
Plates are covered and incubated at room temperature for 60 minutes.
IMAP binding reagent (Molecular Devices) is diluted 1:400 into binding buffer (Molecular Devices). 15 μl of this solution is then added to all wells and the plates are covered and incubated for 30 minutes.
Plates are read using a Tecan Ultra under the fluorescence polarization mode. Gain is set to the less enzyme and less Compound wells for each plate. Excitation 485 nm, emmission 535 nm, Z position 12519 and flashes 5 are used as settings. Raw data from the Tecan reader is imported into an access database for analysis.

[2] = tested on: mouse thymocytes; assay: IR-induced apoptosis in mouse thymocytes (PI staining, FACS); format: cell-based; conditions: thymocytes from Chk2+/+ or Chk2-/- mice, 1 μM for 1 h, 5 Gy IR, 16 h
Procedure: FIG. 3. […] Thymocytes were isolated from Chk2+/+ or Chk2−/− mice by mechanical disaggregation. The isolated thymocytes were treated in the absence or presence of 1 μM compound 18 or ref^λ (J. Wu et al, Bioorganic and Medicinal Chemistry letters, 2007, 17(1), 172, [N-isobutyl analog of compound 7]) for 1 hour. The cells were then exposed to 5 Gy IR and incubated for 16 hours. The cells were then washed in PBS and fixed in ethanol. Propidium isodide (PI) was added in the presence of RNAse A before being subjected to flow cytometry. The graphs show FACS analysis of the PI stained cells.

[3] = tested on: OVCAR-4 cells; assay: Combination with camptothecin in OVCAR-4 cells (MTS growth inhibition); format: cell-based, human; conditions: 48 h, MTS staining, 40 combinations
Procedure: FIG. 4. Compound 18 is synergistic with camptothecin (CPT) in OVCAR-4 cells. OVCAR-4 cells were treated with either compound 18 or CPT as single agents in 96 well tissue culture plates. In addition, the cells were exposed to 40 combinations of compound 18 and CPT. The drug treatments were for 48 hours and the cells were then subjected to MTS staining to determine the growth inhibitory effect. The graph represents a 3-dimensional plot of the MTS data obtained. The upper, light gray surface represents a theoretical surface of additivity that was generated from dose response curves of compound 18 alone and CPT alone. The lower, dark grey surface depicts the surface of the combination of compound 18 and CPT that was generated from data obtained in the MTS assay (shown by the blue circles). Data points lying under the green additivity surface are deemed to synergistic combinations. The bar graph on the right is a 2-dimensional representation of 1 combination of 11 μM compound 18 and 6.25 μM CPT taken from the 3-D model.

[4] = tested on: HDMX in MCF7 cells; assay: HDMX degradation in MCF7 cells following DNA damage (Western blot); format: cell-based; conditions: varying concentrations 2.5 h, then 1 μM topotecan 4 h or 10 Gy IR + 4 h
Procedure: FIG. 2. […] MCF7 cells were treated in the absence (control) or presence of compound 18 at varying concentrations for 2.5 hours. The cells were then exposed to either 1 μM topotecan (TPT) for 4 hours or they were exposed to 10 Gy IR and incubated for 4 hours. Whole cell extracts were made and Western blotting was performed to detect HDMX. The levels of HDMX were quantified from the blots and normalized to actin. The normalized levels of HDMX are depicted as bar graphs under the blots.

T1 sequence (O96017 whole entry): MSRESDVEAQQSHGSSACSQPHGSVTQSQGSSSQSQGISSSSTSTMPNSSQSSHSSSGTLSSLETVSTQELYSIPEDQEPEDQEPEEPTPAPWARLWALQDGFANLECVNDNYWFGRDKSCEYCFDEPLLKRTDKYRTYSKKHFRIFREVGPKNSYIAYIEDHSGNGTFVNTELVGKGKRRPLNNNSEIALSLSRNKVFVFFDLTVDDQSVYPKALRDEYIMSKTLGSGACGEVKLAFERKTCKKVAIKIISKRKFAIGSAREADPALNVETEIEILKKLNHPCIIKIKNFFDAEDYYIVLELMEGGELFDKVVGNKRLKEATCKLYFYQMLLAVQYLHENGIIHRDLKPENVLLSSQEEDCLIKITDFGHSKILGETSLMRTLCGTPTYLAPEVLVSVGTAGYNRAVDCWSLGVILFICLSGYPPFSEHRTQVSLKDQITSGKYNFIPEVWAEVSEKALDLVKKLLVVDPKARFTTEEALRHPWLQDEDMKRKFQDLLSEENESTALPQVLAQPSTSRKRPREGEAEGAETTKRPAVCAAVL

Question: How did the EC50 [1] turn out when C/C(=N\NC(=N)N)c1ccc(NC(=O)c2cc3cccc([N+](=O)[O-])c3[nH]2)cc1 [Compound 18] was run?
Answer: < 100 nM

Question: And the “Effect on IR-induced apoptosis” value [2]?
Answer: abrogation of IR-induced apoptosis

Question: What about the “Combination effect with camptothecin (CPT)” value [3] of the same compound?
Answer: synergistic

Question: What about the “Effect on HDMX degradation following DNA damage” value [4] of the same compound?
Answer: Abrogation of HDMX degradation
